Reference: US4432974A, “Antiinflammatory and/or analgesic 2,3-diaryl-5-silyl thiophenes” (E. I. Du Pont de Nemours and Company, priority 1982, dated 1984)
Where two headings read alike, the source gives them in different places.

Experiments:
[1] = tested on: adjuvant-induced arthritis in rats; experiment: Established Adjuvant-Induced Arthritis in Rats; type: in vivo, Charles River Lewis male rats; settings: for ED50: 168 h, read-out: Adjuvant Arthritis ED50 % Decrease From Control Paw Volume
[2] = tested on: phenylquinone-induced writhing in mice; experiment: Phenylquinone Writhing Test; type: in vivo, female white mice; settings: Mus musculus, read-out: Phenylquinone Writhing ED50
Description: A standard procedure for detecting and comparing the analgesic activity of compounds in this series for which there is a good correlation with human efficacy is the standard phenylquinone writhing test modified from Siegmund, et al., Proc. Soc. Exp. Biol. Med., 95, 729 (1957). A test compound suspended in 1% methylcellulose was given orally to fasted (17-21 hours) female white mice, 5-20 animals per double blind test. Aqueous (0.01% phenyl-p-benzoquinone) phenylquinone, 0.20 ml per mouse, was injected intraperitoneally 6 minutes before observations were begun. […] The effective analgesic dose for 50% of the mice (ED50) was calculated by the moving average method of Thompson, W. R., Bact. Rev., 11, 115-145 (1947); the time of peak activity was determined for many of the compounds. Data for some of the compounds is summarized in Tables II and III together with data for some standard analgetic antiinflammatory drugs.

[3] = Table III, oral daily, 7 days, rat, from dose-response regression lines
[4] = Table III, oral, fasted female white mice
[5] = daily oral dose 45 mg/kg, 7 days, rat, footnote 1 p < .001, footnote 2 p < .05 vs control

CC[Si](CC)(CC)c1cc(-c2ccc(OC)cc2)c(-c2ccc(OC)cc2)s1 [Example 10]
ED50 ([1]; Rattus norvegicus, po): 25 mg/kg
ED50 ([2]; po): 5.2 mg/kg

CC(C)Cc1ccc(C(C)C(=O)O)cc1 (centres unmarked) [Ibuprofen, reference compound]
ED50 [1, 3]: 100 mg/kg
ED50 [2, 4]: 10 mg/kg

CC(=O)Oc1ccccc1C(=O)O [Aspirin, reference compound]
ED50 ([2]; po): 135 mg/kg

CSc1ccc(-c2sc([Si](C)(C)C)cc2-c2ccc(F)cc2)cc1 [Example 6]
Adjuvant Arthritis Percent Decrease From Control Paw Volume ([1]; daily oral dose 81 mg/kg, 7 days, rat, p < .001 vs control (Student's t)): 42%

C[Si](C)(C)c1cc(-c2ccccc2)c(-c2ccccc2)s1 [Example 4]
ED50 ([1]; Rattus norvegicus, po): 45 mg/kg
ED50 ([2]; po): 15 mg/kg

COc1ccc(-c2cc([Si](C)(C)Cc3ccccc3)sc2-c2ccc(OC)cc2)cc1 [Example 13]
Adjuvant Arthritis Percent Decrease From Control Paw Volume [1, 5]: 24%

COc1ccc(-c2cc([Si](C)(C)OC)sc2-c2ccc(OC)cc2)cc1 [Example 21, 2,3-Bis(4-methoxyphenyl)-5-(methoxydimethylsilyl)thiophene]
ED50 ([1]; Rattus norvegicus, po): 9.8 mg/kg
ED50 ([2]; po): 3.8 mg/kg

C[Si](C)(C)c1cc(-c2ccc(F)cc2)c(-c2ccc(F)cc2)s1 [Example 3]
Adjuvant Arthritis Percent Decrease From Control Paw Volume ([1]; daily oral dose 27 mg/kg, 7 days, rat, p < .001 vs control (Student's t)): 37%
ED50 ([2]; po): 4.5 mg/kg

C=CC[Si](C)(C)c1cc(-c2ccc(OC)cc2)c(-c2ccc(OC)cc2)s1 [Example 8, 2,3-bis(4-methoxyphenyl)-5-[(2-propenyl)dimethylsilyl]thiophene]
ED50 ([1]; Rattus norvegicus, po): 9.4 mg/kg
ED50 ([2]; po): 0.76 mg/kg

CCCCC1C(=O)N(c2ccccc2)N(c2ccccc2)C1=O [Phenylbutazone, reference compound]
ED50 [1, 3]: 10 mg/kg
ED50 [2, 4]: 80 mg/kg

C=C[Si](C)(C)c1cc(-c2ccc(OC)cc2)c(-c2ccc(OC)cc2)s1 [Example 7, 2,3-bis(4-methoxyphenyl)-5-(ethenyldimethylsilyl)thiophene]
ED50 ([1]; Rattus norvegicus, po): 6.8 mg/kg
ED50 ([2]; po): 0.23 mg/kg

COc1ccc(-c2cc([Si](C)(C)C(C)(C)C)sc2-c2ccc(OC)cc2)cc1 [Example 11]
ED50 ([1]; Rattus norvegicus, po): 40 mg/kg
ED50 ([2]; po): > 108 mg/kg

COc1ccc(-c2cc([SiH](C)C)sc2-c2ccc(OC)cc2)cc1 [Example 2, 2,3-Bis(4-methoxyphenyl)-5-(dimethylsilyl)thiophene]
ED50 ([1]; Rattus norvegicus, po): 14.5 mg/kg
ED50 ([2]; po): 2.1 mg/kg

COc1ccc(-c2cc([Si](C)(C)c3ccccc3)sc2-c2ccc(OC)cc2)cc1 [Example 12]
ED50 ([1]; Rattus norvegicus, po): 55 mg/kg
ED50 ([2]; po): < 108 mg/kg

COc1ccc2c(c1)c(CC(=O)O)c(C)n2C(=O)c1ccc(Cl)cc1 [Indomethacin, reference compound]
ED50 ([1]; Rattus norvegicus, po): 0.3 mg/kg
ED50 ([2]; po): 0.35 mg/kg

COc1ccc(-c2cc([Si](C)(C)C)sc2-c2ccc(OC)cc2)cc1 [Example 1, 2,3-Bis(4-methoxyphenyl)-5-(trimethylsilyl)thiophene]
ED50 ([1]; Rattus norvegicus, po): 8 mg/kg
ED50 ([2]; po): 0.19 mg/kg

Cc1ccc(-c2cc([Si](C)(C)C)sc2-c2ccc(C)cc2)cc1 [Example 5]
Adjuvant Arthritis Percent Decrease From Control Paw Volume [1, 5]: 44%
ED50 ([2]; po): 135 mg/kg

COc1ccc(-c2cc([Si](C)(C)CCC(F)(F)F)sc2-c2ccc(OC)cc2)cc1 [Example 9]
ED50 ([1]; Rattus norvegicus, po): 30 mg/kg
